According to PubChem BioAssay (NCI):
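Five compound concentrations were applied to cells in 96-well plates for 48 hours; endpoints were derived by simple linear interpolation of the resulting dose-response curve. TGI is the concentration that stops growth completely.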

Key:
Assay in all cases: NCI tumour cell line growth inhibition, 48 h
[1] = tested on: 786-0 renal
[2] = tested on: A498 renal
[3] = tested on: A549 NSCLC
[4] = tested on: ACHN renal
[5] = tested on: CAKI-1 renal
[6] = tested on: CCRF-CEM leukemia
[7] = tested on: COLO 205 colon
[8] = tested on: DLD-1 colon
[9] = tested on: EKVX NSCLC
[10] = tested on: HCC-2998 colon
[11] = tested on: HCT-116 colon
[12] = tested on: HCT-15 colon
[13] = tested on: HOP-18 NSCLC
[14] = tested on: HOP-62 NSCLC
[15] = tested on: HOP-92 NSCLC
[16] = tested on: HT29 colon
[17] = tested on: IGROV1 ovarian
[18] = tested on: K-562 leukemia
[19] = tested on: KM12 colon
[20] = tested on: KM20L2 colon
[21] = tested on: LOX IMVI melanoma
[22] = tested on: LXFL 529 NSCLC
[23] = tested on: M14 melanoma
[24] = tested on: M19-MEL melanoma
[25] = tested on: MALME-3M melanoma
[26] = tested on: MOLT-4 leukemia
[27] = tested on: NCI-H226 lung
[28] = tested on: NCI-H23 lung
[29] = tested on: NCI-H460 lung
[30] = tested on: NCI-H522 lung
[31] = tested on: OVCAR-3 ovarian
[32] = tested on: OVCAR-4 ovarian
[33] = tested on: OVCAR-5 ovarian
[34] = tested on: OVCAR-8 ovarian
[35] = tested on: RPMI-8226 leukemia
[36] = tested on: RXF 393 renal
[37] = tested on: RXF-631 renal
[38] = tested on: SF-268 CNS
[39] = tested on: SF-295 CNS
[40] = tested on: SF-539 CNS
[41] = tested on: SK-MEL-28 melanoma
[42] = tested on: SK-MEL-5 melanoma
[43] = tested on: SK-OV-3 ovarian
[44] = tested on: SN12C renal
[45] = tested on: SNB-19 CNS
[46] = tested on: SNB-75 CNS
[47] = tested on: SNB-78 CNS
[48] = tested on: SR leukemia
[49] = tested on: SW-620 colon
[50] = tested on: TK-10 renal
[51] = tested on: U251 CNS
[52] = tested on: UACC-257 melanoma
[53] = tested on: UACC-62 melanoma
[54] = tested on: UO-31 renal
[55] = tested on: XF 498 CNS
[56] = tested on: DMS 114 small cell lung
[57] = tested on: HL-60(TB) leukemia
[58] = tested on: SK-MEL-2 melanoma
[59] = tested on: DMS 273 small cell lung

CCC1CN2CCC3(c4ccccc4)CC(C(=O)OC)=CC1C23 (centres undefined)
TGI [1]: 31.9 µM | TGI [2]: 33.9 µM | TGI [3]: 35.8 µM | TGI [4]: 30.4 µM | TGI [5]: 33.1 µM | TGI [6]: > 100 µM | TGI [7]: 31.1 µM | TGI [8]: 39 µM | TGI [9]: 34.1 µM | TGI [10]: 30.7 µM | TGI [11]: 29.4 µM | TGI [12]: 31.9 µM | TGI [13]: 35.1 µM | TGI [14]: 38.4 µM | TGI [15]: 25.9 µM | TGI [16]: 31.7 µM | TGI [17]: 47.3 µM | TGI [18]: 24.9 µM | TGI [19]: 28.2 µM | TGI [20]: 30.3 µM | TGI [21]: 28.3 µM | TGI [22]: 28.7 µM | TGI [23]: 28.2 µM | TGI [24]: 31.1 µM | TGI [25]: 29.7 µM | TGI [26]: > 100 µM | TGI [27]: 36.2 µM | TGI [28]: 28.9 µM | TGI [29]: 32.5 µM | TGI [30]: 27.2 µM | TGI [31]: 33.8 µM | TGI [32]: 27.8 µM | TGI [33]: 20.6 µM | TGI [34]: 33.7 µM | TGI [35]: > 100 µM | TGI [36]: 33.6 µM | TGI [37]: 28.5 µM | TGI [38]: 27.7 µM | TGI [39]: 33.1 µM | TGI [40]: 31.3 µM | TGI [41]: 31.5 µM | TGI [42]: 30.2 µM | TGI [43]: 26.5 µM | TGI [44]: 30.4 µM | TGI [45]: 35 µM | TGI [46]: 51 µM | TGI [47]: 44 µM | TGI [48]: > 100 µM | TGI [49]: 31.8 µM | TGI [50]: 58.6 µM | TGI [51]: 30 µM | TGI [52]: 32 µM | TGI [53]: 30.2 µM | TGI [54]: 27.1 µM | TGI [55]: 18.2 µM

CCOC(=O)C1=C(Nc2ccc(Cl)c(Cl)c2)OC/C1=N\NS(=O)(=O)c1ccc(C)cc1
TGI [1]: > 100 µM | TGI [2]: > 100 µM | TGI [3]: > 100 µM | TGI [5]: > 100 µM | TGI [6]: > 100 µM | TGI [7]: > 100 µM | TGI [8]: > 100 µM | TGI [56]: > 100 µM | TGI [9]: > 100 µM | TGI [10]: > 100 µM | TGI [11]: > 100 µM | TGI [57]: > 100 µM | TGI [13]: > 100 µM | TGI [14]: > 100 µM | TGI [17]: > 100 µM | TGI [18]: > 100 µM | TGI [19]: > 100 µM | TGI [20]: > 100 µM | TGI [21]: > 100 µM | TGI [22]: > 100 µM | TGI [23]: > 100 µM | TGI [24]: > 100 µM | TGI [25]: > 100 µM | TGI [26]: > 100 µM | TGI [27]: > 100 µM | TGI [28]: > 100 µM | TGI [29]: > 100 µM | TGI [30]: 74.8 µM | TGI [31]: > 100 µM | TGI [32]: > 100 µM | TGI [33]: > 100 µM | TGI [34]: > 100 µM | TGI [35]: 64.9 µM | TGI [36]: > 100 µM | TGI [37]: > 100 µM | TGI [38]: > 100 µM | TGI [39]: > 100 µM | TGI [40]: > 100 µM | TGI [58]: > 100 µM | TGI [41]: > 100 µM | TGI [42]: > 100 µM | TGI [43]: > 100 µM | TGI [44]: > 100 µM | TGI [45]: > 100 µM | TGI [46]: > 100 µM | TGI [47]: > 100 µM | TGI [49]: > 100 µM | TGI [50]: > 100 µM | TGI [51]: > 100 µM | TGI [52]: 61.7 µM | TGI [53]: > 100 µM | TGI [54]: 85.6 µM | TGI [55]: > 100 µM

Cc1cc2c(C)n(Cc3ccc(Cl)cc3Cl)nc2c(C(=O)O)c1C
TGI [1]: > 100 µM | TGI [3]: > 100 µM | TGI [4]: > 100 µM | TGI [6]: > 100 µM | TGI [7]: > 100 µM | TGI [8]: > 100 µM | TGI [59]: > 100 µM | TGI [9]: > 100 µM | TGI [10]: > 100 µM | TGI [11]: > 100 µM | TGI [12]: > 100 µM | TGI [57]: > 100 µM | TGI [13]: > 100 µM | TGI [14]: > 100 µM | TGI [15]: > 100 µM | TGI [16]: > 100 µM | TGI [17]: > 100 µM | TGI [20]: > 100 µM | TGI [21]: > 100 µM | TGI [22]: > 100 µM | TGI [24]: > 100 µM | TGI [25]: > 100 µM | TGI [26]: > 100 µM | TGI [27]: > 100 µM | TGI [28]: > 100 µM | TGI [29]: > 100 µM | TGI [31]: > 100 µM | TGI [33]: > 100 µM | TGI [34]: > 100 µM | TGI [35]: > 100 µM | TGI [36]: > 100 µM | TGI [37]: > 100 µM | TGI [38]: > 100 µM | TGI [39]: > 100 µM | TGI [40]: > 100 µM | TGI [58]: > 100 µM | TGI [41]: > 100 µM | TGI [43]: > 100 µM | TGI [44]: > 100 µM | TGI [45]: > 100 µM | TGI [46]: > 100 µM | TGI [47]: > 100 µM | TGI [49]: > 100 µM | TGI [50]: > 100 µM | TGI [51]: > 100 µM | TGI [52]: > 100 µM | TGI [53]: > 100 µM | TGI [54]: > 100 µM | TGI [55]: > 100 µM

O=S(=O)(C/C(=N\O)c1ccccc1)c1ccccc1
TGI [1]: > 100 µM | TGI [2]: > 100 µM | TGI [3]: > 100 µM | TGI [4]: > 100 µM | TGI [5]: > 100 µM | TGI [6]: > 100 µM | TGI [7]: > 100 µM | TGI [8]: > 100 µM | TGI [59]: > 100 µM | TGI [9]: > 100 µM | TGI [10]: > 100 µM | TGI [11]: > 100 µM | TGI [12]: > 100 µM | TGI [57]: > 100 µM | TGI [13]: > 100 µM | TGI [14]: > 100 µM | TGI [15]: > 100 µM | TGI [16]: > 100 µM | TGI [17]: > 100 µM | TGI [18]: > 100 µM | TGI [19]: > 100 µM | TGI [20]: > 100 µM | TGI [21]: > 100 µM | TGI [22]: > 100 µM | TGI [23]: > 100 µM | TGI [24]: > 100 µM | TGI [25]: > 100 µM | TGI [26]: > 100 µM | TGI [27]: > 100 µM | TGI [28]: > 100 µM | TGI [29]: > 100 µM | TGI [30]: > 100 µM | TGI [31]: > 100 µM | TGI [32]: > 100 µM | TGI [33]: > 100 µM | TGI [34]: > 100 µM | TGI [35]: > 100 µM | TGI [36]: > 100 µM | TGI [37]: > 100 µM | TGI [38]: > 100 µM | TGI [39]: > 100 µM | TGI [40]: > 100 µM | TGI [58]: > 100 µM | TGI [41]: > 100 µM | TGI [42]: > 100 µM | TGI [43]: > 100 µM | TGI [44]: > 100 µM | TGI [45]: > 100 µM | TGI [46]: > 100 µM | TGI [47]: > 100 µM | TGI [49]: > 100 µM | TGI [50]: > 100 µM | TGI [51]: > 100 µM | TGI [52]: > 100 µM | TGI [53]: > 100 µM | TGI [54]: > 100 µM | TGI [55]: > 100 µM
